According to ChEMBL document CHEMBL5291721, “A preclinical secondary pharmacology resource illuminates target-adverse drug reaction associations of marketed drugs” (Nat Commun, 2023):

Tests used:
[1] = target: T1, Muscarinic acetylcholine receptor M2 (Homo sapiens, UniProt P08172); format: functional, cell-based
T1 sequence (P08172 whole entry): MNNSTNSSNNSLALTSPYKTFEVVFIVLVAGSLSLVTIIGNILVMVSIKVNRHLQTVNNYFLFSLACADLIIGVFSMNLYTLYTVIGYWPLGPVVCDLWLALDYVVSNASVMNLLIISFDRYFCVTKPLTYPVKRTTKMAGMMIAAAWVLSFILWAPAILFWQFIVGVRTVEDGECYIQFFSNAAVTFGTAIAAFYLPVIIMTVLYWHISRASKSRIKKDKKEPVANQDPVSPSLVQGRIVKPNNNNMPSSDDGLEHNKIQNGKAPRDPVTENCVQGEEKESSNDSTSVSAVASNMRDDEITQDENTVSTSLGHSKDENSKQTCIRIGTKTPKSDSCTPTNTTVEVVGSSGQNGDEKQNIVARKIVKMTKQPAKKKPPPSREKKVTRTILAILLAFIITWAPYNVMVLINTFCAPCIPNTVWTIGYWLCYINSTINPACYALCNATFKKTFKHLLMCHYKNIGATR

[2] = target: Beta-2 adrenergic receptor (Homo sapiens, UniProt P07550)
Histamine H2 receptor = Histamine H2 receptor (Homo sapiens, UniProt P25021); format: functional, cell-based
Chain of Histamine H2 receptor (P25021 whole entry): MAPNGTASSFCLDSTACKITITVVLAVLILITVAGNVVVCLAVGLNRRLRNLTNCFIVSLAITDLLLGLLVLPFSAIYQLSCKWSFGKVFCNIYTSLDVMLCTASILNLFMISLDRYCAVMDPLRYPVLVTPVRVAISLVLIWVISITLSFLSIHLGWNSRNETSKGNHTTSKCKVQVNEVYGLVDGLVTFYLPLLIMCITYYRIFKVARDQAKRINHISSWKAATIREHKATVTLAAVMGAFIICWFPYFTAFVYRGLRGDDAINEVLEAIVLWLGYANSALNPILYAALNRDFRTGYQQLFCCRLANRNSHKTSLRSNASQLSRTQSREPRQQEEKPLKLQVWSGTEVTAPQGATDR

[3] = target: Delta-type opioid receptor (Homo sapiens, UniProt P41143)
Chain of Delta-type opioid receptor (P41143 whole entry): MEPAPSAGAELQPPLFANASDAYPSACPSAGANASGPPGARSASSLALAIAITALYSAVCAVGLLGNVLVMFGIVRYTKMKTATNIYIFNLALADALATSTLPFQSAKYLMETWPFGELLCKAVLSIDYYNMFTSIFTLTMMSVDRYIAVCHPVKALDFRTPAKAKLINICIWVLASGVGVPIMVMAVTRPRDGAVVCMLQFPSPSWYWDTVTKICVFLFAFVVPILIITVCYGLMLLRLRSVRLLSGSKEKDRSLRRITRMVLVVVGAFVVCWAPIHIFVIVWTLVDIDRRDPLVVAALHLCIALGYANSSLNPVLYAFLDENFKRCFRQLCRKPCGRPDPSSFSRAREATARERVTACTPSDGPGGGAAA

[4] = target: Growth hormone secretagogue receptor type 1 (Homo sapiens, UniProt Q92847)
Chain of Growth hormone secretagogue receptor type 1 (Q92847 whole entry): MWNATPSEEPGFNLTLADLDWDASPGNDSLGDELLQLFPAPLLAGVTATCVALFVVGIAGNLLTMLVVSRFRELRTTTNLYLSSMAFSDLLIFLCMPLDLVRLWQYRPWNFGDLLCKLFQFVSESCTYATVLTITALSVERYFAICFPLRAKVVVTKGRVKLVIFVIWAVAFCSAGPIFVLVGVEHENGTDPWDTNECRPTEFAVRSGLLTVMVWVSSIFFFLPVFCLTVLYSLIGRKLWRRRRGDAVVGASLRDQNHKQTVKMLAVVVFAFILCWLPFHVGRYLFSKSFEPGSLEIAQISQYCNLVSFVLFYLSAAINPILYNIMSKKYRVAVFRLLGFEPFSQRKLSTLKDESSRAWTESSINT

[5] = target: cGMP-inhibited 3',5'-cyclic phosphodiesterase 3A (Homo sapiens, UniProt Q14432); format: functional
Chain of cGMP-inhibited 3',5'-cyclic phosphodiesterase 3A (Q14432 whole entry): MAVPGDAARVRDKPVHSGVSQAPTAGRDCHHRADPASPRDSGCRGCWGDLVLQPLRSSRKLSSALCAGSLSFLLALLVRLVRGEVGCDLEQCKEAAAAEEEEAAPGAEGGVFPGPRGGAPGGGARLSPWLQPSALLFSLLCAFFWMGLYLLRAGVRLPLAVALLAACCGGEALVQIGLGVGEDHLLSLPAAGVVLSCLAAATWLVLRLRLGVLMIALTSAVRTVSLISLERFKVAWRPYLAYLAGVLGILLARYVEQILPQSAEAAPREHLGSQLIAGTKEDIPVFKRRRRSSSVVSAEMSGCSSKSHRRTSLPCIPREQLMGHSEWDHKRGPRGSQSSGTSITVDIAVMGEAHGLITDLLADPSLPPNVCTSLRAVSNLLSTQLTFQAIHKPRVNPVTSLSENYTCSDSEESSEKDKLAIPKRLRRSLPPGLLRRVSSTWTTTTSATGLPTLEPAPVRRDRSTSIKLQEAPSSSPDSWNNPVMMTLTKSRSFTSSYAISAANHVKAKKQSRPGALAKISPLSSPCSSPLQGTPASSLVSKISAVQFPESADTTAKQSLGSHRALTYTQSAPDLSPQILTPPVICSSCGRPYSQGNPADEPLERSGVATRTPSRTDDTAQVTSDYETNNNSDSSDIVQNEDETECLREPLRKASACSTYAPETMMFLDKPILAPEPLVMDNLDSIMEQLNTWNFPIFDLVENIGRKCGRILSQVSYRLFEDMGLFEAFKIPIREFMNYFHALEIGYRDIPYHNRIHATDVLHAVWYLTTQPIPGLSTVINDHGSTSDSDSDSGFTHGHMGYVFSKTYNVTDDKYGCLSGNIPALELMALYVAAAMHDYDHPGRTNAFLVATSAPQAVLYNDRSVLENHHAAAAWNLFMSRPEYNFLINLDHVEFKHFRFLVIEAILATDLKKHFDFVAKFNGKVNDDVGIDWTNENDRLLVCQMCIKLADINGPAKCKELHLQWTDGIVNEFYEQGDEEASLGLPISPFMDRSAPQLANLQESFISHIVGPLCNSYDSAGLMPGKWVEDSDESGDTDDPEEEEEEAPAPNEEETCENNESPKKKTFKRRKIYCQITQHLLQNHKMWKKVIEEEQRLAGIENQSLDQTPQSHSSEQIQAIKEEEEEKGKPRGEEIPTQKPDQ

[6] = target: T2, 5-hydroxytryptamine receptor 3A (Homo sapiens, UniProt P46098); format: functional
T2 sequence (P46098 whole entry): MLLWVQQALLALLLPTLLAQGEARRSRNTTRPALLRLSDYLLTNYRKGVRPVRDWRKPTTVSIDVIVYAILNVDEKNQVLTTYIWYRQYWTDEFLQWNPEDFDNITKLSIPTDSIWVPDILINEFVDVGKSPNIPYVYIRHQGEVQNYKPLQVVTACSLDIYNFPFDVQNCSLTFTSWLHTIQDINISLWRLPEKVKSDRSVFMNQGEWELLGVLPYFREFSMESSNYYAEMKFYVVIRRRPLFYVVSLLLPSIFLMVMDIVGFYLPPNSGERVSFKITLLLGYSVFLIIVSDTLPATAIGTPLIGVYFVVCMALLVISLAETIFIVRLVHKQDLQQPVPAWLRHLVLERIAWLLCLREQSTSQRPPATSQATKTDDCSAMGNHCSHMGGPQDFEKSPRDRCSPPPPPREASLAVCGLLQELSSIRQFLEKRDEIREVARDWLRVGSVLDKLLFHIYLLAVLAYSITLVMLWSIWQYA

[7] = target: T3, Alpha-2A adrenergic receptor (Homo sapiens, UniProt P08913); format: functional, cell-based
T3 sequence (P08913 whole entry): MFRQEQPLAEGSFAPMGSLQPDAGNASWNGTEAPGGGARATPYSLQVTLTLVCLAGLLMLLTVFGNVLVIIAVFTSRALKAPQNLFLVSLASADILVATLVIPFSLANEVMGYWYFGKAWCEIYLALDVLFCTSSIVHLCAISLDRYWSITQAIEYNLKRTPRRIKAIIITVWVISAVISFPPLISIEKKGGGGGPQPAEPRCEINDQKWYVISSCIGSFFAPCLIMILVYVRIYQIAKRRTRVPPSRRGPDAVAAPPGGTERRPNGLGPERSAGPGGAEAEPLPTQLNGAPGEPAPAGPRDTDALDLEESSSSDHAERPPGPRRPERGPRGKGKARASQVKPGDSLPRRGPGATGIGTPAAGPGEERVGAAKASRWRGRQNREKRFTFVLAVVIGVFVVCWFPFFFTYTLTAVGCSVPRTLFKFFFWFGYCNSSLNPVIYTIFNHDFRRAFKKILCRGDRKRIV

[8] = target: T4, Alpha-1A adrenergic receptor (Homo sapiens, UniProt P35348)
T4 sequence (P35348 whole entry): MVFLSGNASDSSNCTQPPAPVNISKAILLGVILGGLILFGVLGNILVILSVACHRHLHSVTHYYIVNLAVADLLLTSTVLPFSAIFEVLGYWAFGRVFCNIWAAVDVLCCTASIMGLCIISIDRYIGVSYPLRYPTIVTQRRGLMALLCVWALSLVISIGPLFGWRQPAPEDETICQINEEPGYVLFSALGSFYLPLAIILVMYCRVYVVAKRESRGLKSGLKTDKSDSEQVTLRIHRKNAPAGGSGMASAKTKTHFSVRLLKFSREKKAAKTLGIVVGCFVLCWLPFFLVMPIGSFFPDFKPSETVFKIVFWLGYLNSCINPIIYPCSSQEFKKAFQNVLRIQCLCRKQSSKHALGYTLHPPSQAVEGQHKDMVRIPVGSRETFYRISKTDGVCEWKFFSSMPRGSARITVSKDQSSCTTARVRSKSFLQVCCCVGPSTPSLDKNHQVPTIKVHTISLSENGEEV

[9] = target: Neuronal acetylcholine receptor subunit alpha-4 (Homo sapiens, UniProt P43681)
Chain of Neuronal acetylcholine receptor subunit alpha-4 (P43681 whole entry): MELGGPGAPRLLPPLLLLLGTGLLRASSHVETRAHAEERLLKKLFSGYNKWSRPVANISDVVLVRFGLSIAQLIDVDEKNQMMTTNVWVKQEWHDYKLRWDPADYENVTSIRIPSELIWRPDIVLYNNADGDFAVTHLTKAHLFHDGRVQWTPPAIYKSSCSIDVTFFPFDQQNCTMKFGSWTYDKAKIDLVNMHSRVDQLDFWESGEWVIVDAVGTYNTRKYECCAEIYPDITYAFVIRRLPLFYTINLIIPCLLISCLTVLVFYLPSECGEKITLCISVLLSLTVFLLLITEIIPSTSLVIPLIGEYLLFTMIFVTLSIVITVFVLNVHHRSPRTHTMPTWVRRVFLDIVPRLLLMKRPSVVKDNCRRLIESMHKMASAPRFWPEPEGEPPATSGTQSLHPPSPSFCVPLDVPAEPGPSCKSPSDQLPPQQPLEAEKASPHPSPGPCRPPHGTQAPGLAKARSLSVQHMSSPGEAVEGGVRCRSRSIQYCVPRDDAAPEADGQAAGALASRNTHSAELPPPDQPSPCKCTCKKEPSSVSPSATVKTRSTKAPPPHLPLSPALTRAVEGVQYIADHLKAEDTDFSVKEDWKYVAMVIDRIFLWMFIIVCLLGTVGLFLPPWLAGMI

Cannabinoid receptor 1 [10] = target: T5, Cannabinoid receptor 1 (Homo sapiens, UniProt P21554); format: functional, cell-based
T5 sequence (P21554 whole entry): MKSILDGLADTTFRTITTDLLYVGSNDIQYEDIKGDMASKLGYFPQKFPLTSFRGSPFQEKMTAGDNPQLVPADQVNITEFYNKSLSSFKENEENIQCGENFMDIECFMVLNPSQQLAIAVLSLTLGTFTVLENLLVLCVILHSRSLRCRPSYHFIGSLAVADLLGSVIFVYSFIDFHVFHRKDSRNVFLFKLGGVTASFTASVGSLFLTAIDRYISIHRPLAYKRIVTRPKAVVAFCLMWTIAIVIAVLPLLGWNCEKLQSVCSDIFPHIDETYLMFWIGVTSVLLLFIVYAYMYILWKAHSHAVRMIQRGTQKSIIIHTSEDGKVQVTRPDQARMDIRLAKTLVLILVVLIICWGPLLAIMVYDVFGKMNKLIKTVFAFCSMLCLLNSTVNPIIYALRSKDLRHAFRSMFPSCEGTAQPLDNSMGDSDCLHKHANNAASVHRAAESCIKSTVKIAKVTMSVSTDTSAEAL

Cannabinoid receptor 1 [11] = target: T5, Cannabinoid receptor 1; format: functional, cell-based; remark: listed apart in the source
[12] = target: 5-hydroxytryptamine receptor 2A (Homo sapiens, UniProt P28223); format: functional, cell-based
Chain of 5-hydroxytryptamine receptor 2A (P28223 whole entry): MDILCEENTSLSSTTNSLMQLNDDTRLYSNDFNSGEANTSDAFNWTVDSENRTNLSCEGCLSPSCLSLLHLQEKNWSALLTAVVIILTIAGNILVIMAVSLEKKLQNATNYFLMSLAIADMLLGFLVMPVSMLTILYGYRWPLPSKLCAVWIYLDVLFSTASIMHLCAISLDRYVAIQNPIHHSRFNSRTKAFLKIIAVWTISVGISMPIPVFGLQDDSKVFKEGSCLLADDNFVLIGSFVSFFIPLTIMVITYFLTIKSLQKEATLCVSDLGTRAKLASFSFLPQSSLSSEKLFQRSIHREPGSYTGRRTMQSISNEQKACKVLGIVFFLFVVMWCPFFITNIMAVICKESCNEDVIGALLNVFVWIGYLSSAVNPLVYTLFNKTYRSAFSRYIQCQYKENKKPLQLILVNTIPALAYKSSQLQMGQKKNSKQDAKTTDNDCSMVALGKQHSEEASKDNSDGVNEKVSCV

[13] = target: T6, Gastrin/cholecystokinin type B receptor (Homo sapiens, UniProt P32239)
T6 sequence (P32239 whole entry): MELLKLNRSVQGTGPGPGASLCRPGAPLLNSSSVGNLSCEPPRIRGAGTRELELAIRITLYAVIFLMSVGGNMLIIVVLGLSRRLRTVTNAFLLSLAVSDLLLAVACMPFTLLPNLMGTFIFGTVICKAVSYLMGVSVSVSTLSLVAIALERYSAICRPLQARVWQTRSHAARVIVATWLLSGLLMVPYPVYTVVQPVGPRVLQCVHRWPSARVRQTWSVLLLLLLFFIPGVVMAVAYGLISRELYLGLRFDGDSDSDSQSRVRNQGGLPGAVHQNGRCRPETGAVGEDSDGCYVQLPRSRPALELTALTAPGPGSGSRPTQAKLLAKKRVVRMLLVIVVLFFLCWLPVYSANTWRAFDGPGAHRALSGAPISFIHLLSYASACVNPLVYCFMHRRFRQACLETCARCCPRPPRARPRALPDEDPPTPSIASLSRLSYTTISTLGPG
Also: assay procedure not described here.

Compound	AC50 [1] [µM]	AC50 [2] [µM]	AC50 (Histamine H2 receptor) [µM]	AC50 [3] [µM]	AC50 [4] [µM]	AC50 [5] [µM]	AC50 [6] [µM]	AC50 [7] [µM]	AC50 [8] [µM]	AC50 [9] [µM]	AC50 (Cannabinoid receptor 1 [10]) [µM]	AC50 (Cannabinoid receptor 1 [11]) [µM]	AC50 [12] [µM]	AC50 [13] [µM]
CN(Cc1ccc(C(C)(C)C)cc1)Cc1cccc2ccccc12 [BUTENAFINE]	> 10	> 10	> 10	> 30	> 10	> 30	> 30	> 10	> 10	> 10	–	–	–	–
CC1CC(OC(=O)C(O)c2ccccc2)CC(C)(C)C1 (stereo not given) [CYCLANDELATE]	> 10	> 10	> 10	> 30	> 10	> 30	> 30	> 10	> 10	> 10	–	–	–	–
CCC1(C)CC(=O)NC1=O (stereo not given) [ETHOSUXIMIDE]	> 10	> 10	> 30	> 30	> 10	> 30	> 30	> 10	> 30	> 10	–	–	–	–
CN1C(=O)CN=C(c2ccccc2F)c2cc([N+](=O)[O-])ccc21 [FLUNITRAZEPAM]	> 10	> 10	> 10	> 10	29.1	> 30	> 10	> 10	> 10	> 10	> 30	> 30	–	–
CC(=O)[C@@]1(O)CC[C@H]2[C@@H]3C[C@H](C)C4=CC(=O)C=C[C@]4(C)[C@@]3(F)[C@@H](O)C[C@@]21C [FLUOROMETHOLONE]	> 10	> 10	> 10	> 30	> 10	> 30	> 30	> 10	> 10	> 10	> 30	> 30	–	–
Cc1ccc(S(=O)(=O)NC(=O)N[C@H]2[C@H]3CC[C@@](C)([C@H]2O)C3(C)C)cc1 [GLIBORNURIDE]	> 30	> 30	> 30	> 30	> 30	> 30	> 30	> 30	–	> 30	> 30	> 30	> 30	> 30
CC(=O)N1CCN(c2ccc(OCC3COC(Cn4ccnc4)(c4ccc(Cl)cc4Cl)O3)cc2)CC1 (stereo not given) [KETOCONAZOLE]	–	> 10	> 10	> 10	> 10	> 30	> 30	> 10	> 10	> 10	> 30	> 30	–	–
CN1CCC(=C2c3ccccc3CC(=O)c3sccc32)CC1 [KETOTIFEN]	> 10	> 10	> 10	> 30	> 10	> 30	–	> 10	10.4	> 10	> 30	16	–	–
CC(C)(C)NCC(O)COc1cccc2c1CC(O)C(O)C2 (stereo not given) [NADOLOL]	> 10	–	> 10	> 30	> 10	> 30	> 30	> 10	> 10	> 10	> 30	> 30	–	–
CCN(CC)Cc1nccn1-c1ccc([N+](=O)[O-])cc1C(=O)c1ccccc1Cl [NIZOFENONE]	> 30	> 30	> 30	> 30	> 30	> 30	> 30	> 30	–	8.3	> 30	> 30	> 30	> 30
Nc1ccc(S(=O)(=O)Nc2ncccn2)cc1 [SULFADIAZINE]	> 10	> 10	> 10	> 30	> 10	> 30	> 30	> 10	> 10	> 10	–	–	–	–
CCCCOC(=O)C(=O)Nc1cccc(-c2nnn[nH]2)c1 [TAZANOLAST]	> 30	> 30	> 30	> 30	> 30	> 30	> 30	> 30	–	> 30	> 30	> 30	> 30	> 30
CC1=C(/C=C/C(C)=C/C=C/C(C)=C/C(=O)Oc2c(C)c(C)c3c(c2C)CCC(C)(CCCC(C)CCCC(C)CCCC(C)C)O3)C(C)(C)CCC1 (stereo not given) [TRETINOIN TOCOFERIL]	> 30	> 30	> 30	> 30	> 30	> 30	> 30	> 30	–	> 30	> 30	> 30	> 30	> 30
CN(C)CCOCC(=O)NC12CC3CC(CC(C3)C1)C2 [TROMANTADINE]	> 30	> 30	> 30	> 30	> 30	> 30	> 30	> 30	–	> 30	> 30	> 30	> 30	> 30
SITOSTEROLS	> 30	> 30	> 30	> 30	> 30	> 10	> 30	> 30	–	> 30	> 30	> 30	> 30	> 10
